The IC50 is the concentration needed to halve the response being measured.

The target in one experiment is Recombinant CatD (Homo sapiens (Human), UniProt P07339). The experiment is described as follows: In vitro enzymatic Cathepsin D (CatD) FRET assay. The following applies: read-out: Cat D Enzyme IC50. The experiment is classed as biochemical. On the procedure:
In Vitro Enzymatic Cathepsin D (CatD) FRET Assay Recombinant CatD was expressed in CHO cells. The assay buffer for CatD was 0.05 M citrate pH 3.5, 10% DMSO final, 5 mM CHAPS. […] The assays was effectively started by the addition of different FRET substrates (20 nM for CatD) and the combination was incubated for one hour. The FRET assay was terminated with by addition of tris buffer, which raises the pH to neutrality, and the fluorescence was determined. The FRET substrate was a peptide with commercially available fluorophore and quencher, on opposite sides of the CatD cleavage site. The CatD substrate peptide sequence was based on sequence #1 of Table 1 from Gulnik et al., FEBS Lett. 413(2):379-384 (1997). Proteolytic cleavage of the FRET substrate released quenching of fluorescence (CatD excitation 500 nm and emission 580 nm). The in vitro CatD FRET assay data for each of the Examples is provided in Table 2, conducted by the first procedure described above. […] Thus, with this surprising selectivity profile, the compounds provided herein are believed to minimize, reduce or completely eliminate any risk of retinal atrophy and abnormal development of the eye and of the retinal pigmented epithelium as it relates to the normal function and activity of CatD.

A further experiment concerns the target human recombinant BACE1 (Homo sapiens (Human), UniProt P56817). The experiment is described as follows: In vitro enzymatic BACE1 FRET assay. The experiment is classed as biochemical. Particulars: read-out: BACE1 Enzyme IC50. As to the method:
(§1) In Vitro Enzymatic BACE1 and BACE2 FRET (Fluorescence Resonance Energy Transfer) Assays […] These recombinant proteins were further purified using Ni-NTA affinity chromatography (Qiagen). […] The assay was effectively started by the addition of FRET substrate (50 nM) and the combination was incubated for one hour. The FRET assay was terminated by the addition of tris buffer, which raised the pH to neutrality, and the fluorescence was determined. The FRET substrate was a peptide with commercially available fluorophore and quencher, on opposite sides of the BACE cleavage site. The specific FRET substrate used in this assay was made by Amgen in-house. Commercially available FRET substrates, for example, the FRET substrate offered with the BACE1 FRET Assay Kit sold by ThermoFisher Scientific (Catalog Number P2985), may be used in this assay with the appropriate modifications, which are within the purview of the ability of a person with ordinary skill in the art. Proteolytic cleavage of the FRET substrate released quenching of fluorescence (excitation 488 nm and emission 590 nm).

A further experiment concerns the target human recombinant BACE2 (Homo sapiens (Human), UniProt Q9Y5Z0). The experiment is described as follows: In vitro enzymatic BACE2 FRET assay. The experiment is classed as biochemical. Particulars: read-out: BACE2 Enzyme IC50. As to the method:
as §1

Experiment [1] has as its system BACE1 (Aβ40 from cells stably expressing Amyloid Precursor Protein). The experiment is described as follows: In vitro BACE1 cell-based assay (Aβ40 in conditioned medium, HTRF). As to the method:
In Vitro BACE1 Cell-Based Assay The cell-based assay measures inhibition or reduction of Aβ40 in conditioned medium of test compound treated cells expressing amyloid precursor protein. Cells stably expressing Amyloid Precursor Protein (APP) were plated at a density of 45K cells/well in 384 well plates (Corning/BioCoat 354663). The test compounds were then added to cells in 22-point dose response concentrations with the starting concentration being 62.5 μM. The compounds were diluted from stock solutions in DMSO and the final DMSO concentration of the test compounds on cells was 0.625%. The cells were cultivated overnight at 37° C. and 5% CO2 in DMEM supplemented with 10% FBS. After 24 h of incubation with the test compounds, the conditioned media was collected and the Aβ40 levels were determined using HTRF (Homogeneous Time Resolved Fluorescence). […] The HTRF to detect Aβ40 was performed in 384 well plates (Costar 3658). The antibody pair that were used to detect Aβ 40 from cell supernatants were ConfAb40 antibody (Amgen in-house) and biotinylated 6E10 (BIOLEGEND). As an alternative to ConfAb40, a commercially available antibody, Anti-beta Amyloid 1-40 antibody [BDI350] from Abcam, Cambridge, Mass. 02139-1517 (Product code: ab20068), may be used in this assay. […] The conditioned media was incubated with above antibodies and Streptavidin Allophycocyanin Conjugate for 30-60 minutes at 23° C. The final readout was performed on Envision from PerkinElmer.
On the technique in general: Time-resolved FRET reads energy transfer from a long-lived donor to a nearby acceptor.

Where [2] appears, read: Aβ40, 24 h incubation, read-out: BACE1 Cell IC50.

Read-outs that look alike come from different tables or passages of the source.

Sequence of Recombinant CatD (P07339 65-412): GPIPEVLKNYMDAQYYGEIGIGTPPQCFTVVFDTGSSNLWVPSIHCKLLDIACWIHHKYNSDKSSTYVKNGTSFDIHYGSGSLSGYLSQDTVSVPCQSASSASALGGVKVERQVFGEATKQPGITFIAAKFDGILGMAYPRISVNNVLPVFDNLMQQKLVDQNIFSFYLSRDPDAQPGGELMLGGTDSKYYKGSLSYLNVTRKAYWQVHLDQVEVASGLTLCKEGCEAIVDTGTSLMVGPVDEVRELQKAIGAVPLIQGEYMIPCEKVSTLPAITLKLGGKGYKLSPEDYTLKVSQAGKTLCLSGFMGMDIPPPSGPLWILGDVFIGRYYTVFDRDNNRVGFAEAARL
Sequence of human recombinant BACE2 (Q9Y5Z0 63-518): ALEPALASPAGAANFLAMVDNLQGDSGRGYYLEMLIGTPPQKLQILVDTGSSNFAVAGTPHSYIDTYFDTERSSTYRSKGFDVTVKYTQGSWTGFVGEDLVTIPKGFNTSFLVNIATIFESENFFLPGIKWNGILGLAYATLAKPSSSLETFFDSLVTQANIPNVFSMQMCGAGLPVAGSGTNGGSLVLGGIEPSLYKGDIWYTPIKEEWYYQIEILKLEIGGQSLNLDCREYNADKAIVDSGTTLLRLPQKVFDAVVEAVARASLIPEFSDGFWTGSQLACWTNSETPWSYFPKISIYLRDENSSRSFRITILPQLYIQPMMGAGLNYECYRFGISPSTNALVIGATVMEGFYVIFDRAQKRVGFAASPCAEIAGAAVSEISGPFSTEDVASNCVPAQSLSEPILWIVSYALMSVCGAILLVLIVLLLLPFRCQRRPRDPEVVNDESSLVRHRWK
Sequence of human recombinant BACE1 (P56817 46-501): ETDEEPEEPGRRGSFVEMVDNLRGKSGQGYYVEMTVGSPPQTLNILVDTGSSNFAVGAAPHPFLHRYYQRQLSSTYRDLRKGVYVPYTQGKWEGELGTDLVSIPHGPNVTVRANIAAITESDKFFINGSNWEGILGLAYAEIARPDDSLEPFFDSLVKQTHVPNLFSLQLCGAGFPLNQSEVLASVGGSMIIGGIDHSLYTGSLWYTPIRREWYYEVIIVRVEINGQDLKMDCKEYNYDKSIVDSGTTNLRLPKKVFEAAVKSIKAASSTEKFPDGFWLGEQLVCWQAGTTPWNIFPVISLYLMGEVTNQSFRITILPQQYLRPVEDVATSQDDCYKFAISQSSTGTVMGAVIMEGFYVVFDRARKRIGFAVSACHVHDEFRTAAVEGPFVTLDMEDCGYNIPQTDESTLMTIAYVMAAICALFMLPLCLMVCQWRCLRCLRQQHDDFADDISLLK

Regarding `N#Cc1ccc(/C(F)=C/c2ccc(F)c([C@@]34CO[C@@H](C(F)(F)F)[C@@H]3CSC(N)=N4)c2)nc1` [Example 125, 6-((Z)-2-(3-((4aR,5R,7aR)-2-amino-5-(trifluoromethyl)-4a,5,7,7a-tetrahydro-4H-furo[3,4-d][1,3]thiazin-7a-yl)-4-fluorophenyl)-1-fluorovinyl)nicotinonitrile], the IC50 on Recombinant CatD was determined as 30600 nM; on human recombinant BACE1, 2540 nM; at human recombinant BACE2 it was 18000 nM; in experiment [1] (setting [2]), 1.39 µM.
Take `C#CCOc1cnc(/C(F)=C/c2ccc(F)c([C@]34CO[C@H](C(F)(F)F)[C@H]3CSC(N)=N4)c2)cn1` [Example 127, (4aS,5S,7aS)-7a-(2-fluoro-5-((Z)-2-fluoro-2-(5-(prop-2-ynyloxy)pyrazin-2-yl)vinyl)phenyl)-5-(trifluoromethyl)-4a,5,7,7a-tetrahydro-4H-furo[3,4-d][1,3]thiazin-2-amine]: the IC50 at Recombinant CatD came to 160000 nM; at human recombinant BACE1, 103 nM; at human recombinant BACE2 it was 2900 nM; in experiment [1] (24 h, read-out: BACE1 Cell IC50 (μM)) it was 0.0243 µM.
For the molecule `NC1=N[C@@]2(c3cc(/C=C(\F)c4ccc(OC(F)(F)F)cn4)ccc3F)CO[C@H](C(F)(F)F)[C@H]2CS1` [Example 129, (4aS,5S,7aS)-7a-(2-fluoro-5-((Z)-2-fluoro-2-(5-(trifluoromethoxy)pyridin-2-yl)vinyl)phenyl)-5-(trifluoromethyl)-4a,5,7,7a-tetrahydro-4H-furo[3,4-d][1,3]thiazin-2-amine], the IC50 was greater than 44400 nM at Recombinant CatD, 108 nM at human recombinant BACE1, 2220 nM at human recombinant BACE2 and 0.0151 µM in experiment [1] (setting [2]).
With `COc1nc(N2C[C@H]3CSC(N)=N[C@@]3(c3cc(/C=C(\F)c4ccc(C#N)cn4)ccc3F)C2)nc(C)c1F` [Example 130, 6-((Z)-2-(3-((4aR,7aS)-2-amino-6-(5-fluoro-4-methoxy-6-methylpyrimidin-2-yl)-4,4a,5,6,7,7a-hexahydropyrrolo[3,4-d][1,3]thiazin-7a-yl)-4-fluorophenyl)-1-fluorovinyl)nicotinonitrile], the IC50 on Recombinant CatD is 25800 nM; on human recombinant BACE1, 0.405 nM; on human recombinant BACE2, 1.78 nM; in experiment [1] (setting [2]), 0.000906 µM.
With `N#Cc1ccc(/C(F)=C/c2ccc(F)c([C@]34CO[C@H](CF)[C@H]3CSC(N)=N4)c2)nc1` [Example 131, 6-((Z)-2-(3-((4aS,5S,7aS)-2-amino-5-(fluoromethyl)-4a,5,7,7a-tetrahydro-4H-furo[3,4-d][1,3]thiazin-7a-yl)-4-fluorophenyl)-1-fluorovinyl)nicotinonitrile], the IC50 is greater than 400000 nM at Recombinant CatD, 3.83 nM on human recombinant BACE1, 427 nM at human recombinant BACE2 and 0.0115 µM in experiment [1] (setting [2]).
On to `NC1=N[C@@]2(c3cc(/C=C(\F)c4ccc(F)cn4)ccc3F)CO[C@H](C(F)(F)F)[C@H]2CS1` [Example 132, (4aS,5S,7aS)-7a-(2-fluoro-5-((Z)-2-fluoro-2-(5-fluoropyridin-2-yl)vinyl)phenyl)-5-(trifluoromethyl)-4a,5,7,7a-tetrahydro-4H-furo[3,4-d][1,3]thiazin-2-amine], for which the IC50 is greater than 400000 nM at Recombinant CatD, 426 nM at human recombinant BACE1, 427 nM at human recombinant BACE2 and 0.112 µM in experiment [1] (setting [2]).
Regarding `N#Cc1ccc(/C(F)=C/c2ccc(F)c([C@@]34CO[C@@H](CF)[C@@H]3CSC(N)=N4)c2)nc1` [Example 133, 6-((Z)-2-(3-((4aR,5R,7aR)-2-amino-5-(fluoromethyl)-4a,5,7,7a-tetrahydro-4H-furo[3,4-d][1,3]thiazin-7a-yl)-4-fluorophenyl)-1-fluorovinyl)nicotinonitrile], the 50% inhibitory concentration (IC50) at Recombinant CatD turned out to be 139000 nM; on human recombinant BACE1 it was 1220 nM; at human recombinant BACE2, 28000 nM; in experiment [1] (setting [2]) it was 2 µM.
In the case of `COc1nc(N2C[C@H]3CSC(N)=N[C@@]3(c3cc(/C=C(\F)c4ccc(C#N)cn4)ccc3F)C2)ncc1F` [Example 134, 6-((Z)-2-(3-((4aR,7aS)-2-amino-6-(5-fluoro-4-methoxypyrimidin-2-yl)-4,4a,5,6,7,7a-hexahydropyrrolo[3,4-d][1,3]thiazin-7a-yl)-4-fluorophenyl)-1-fluorovinyl)nicotinonitrile], the IC50 at Recombinant CatD came out at 59300 nM; at human recombinant BACE1, 1.4 nM; on human recombinant BACE2 it was 4.3 nM; in experiment [1] (setting [2]) it was 0.0009 µM.
As to `N#Cc1ccc(/C(F)=C/c2ccc(F)c([C@]34CN(c5ncccn5)C[C@H]3CSC(N)=N4)c2)nc1` [Example 135, 6-((Z)-2-(3-((4aR,7aS)-2-amino-6-(pyrimidin-2-yl)-4,4a,5,6,7,7a-hexahydropyrrolo[3,4-d][1,3]thiazin-7a-yl)-4-fluorophenyl)-1-fluorovinyl)nicotinonitrile], the IC50 on Recombinant CatD came out at 106000 nM; on human recombinant BACE1, 4.3 nM; at human recombinant BACE2, 22.3 nM; in experiment [1] (setting [2]), 0.0018 µM.
Regarding `COc1cnc(/C(F)=C/c2ccc(F)c([C@]34CO[C@H](C(F)(F)F)[C@H]3CSC(N)=N4)c2)cn1` [Example 136, (4aS,5S,7aS)-7a-(2-fluoro-5-((Z)-2-fluoro-2-(5-methoxypyrazin-2-yl)vinyl)phenyl)-5-(trifluoromethyl)-4a,5,7,7a-tetrahydro-4H-furo[3,4-d][1,3]thiazin-2-amine], the IC50 on Recombinant CatD was greater than 400000 nM; at human recombinant BACE1, 622 nM; on human recombinant BACE2, 6630 nM; in experiment [1] (setting [2]) it was 2.03 µM.
For `NC1=N[C@@]2(c3cc(/C=C(\F)c4ncc(C(F)(F)F)cc4Cl)ccc3F)CO[C@H](C(F)(F)F)[C@H]2CS1` [Example 137, (4aS,5S,7aS)-7a-(5-((Z)-2-(3-chloro-5-(trifluoromethyl)pyridin-2-yl)-2-fluorovinyl)-2-fluorophenyl)-5-(trifluoromethyl)-4a,5,7,7a-tetrahydro-4H-furo[3,4-d][1,3]thiazin-2-amine], the IC50 at Recombinant CatD amounted to 382000 nM; on human recombinant BACE1, 15 nM; at human recombinant BACE2, 605 nM; in experiment [1] (setting [2]) it was 0.2 µM.
The matching figures for `Cc1cc(C#N)cnc1/C(F)=C/c1ccc(F)c([C@]23CO[C@H](C(F)(F)F)[C@H]2CSC(N)=N3)c1` [Example 138, 6-((Z)-2-(3-((4aS,5S,7aS)-2-amino-5-(trifluoromethyl)-4a,5,7,7a-tetrahydro-4H-furo[3,4-d][1,3]thiazin-7a-yl)-4-fluorophenyl)-1-fluorovinyl)-5-methylnicotinonitrile]: greater than 400000 nM, 27.2 nM, 1140 nM and 0.116 µM.
The matching figures for `NC1=N[C@@]2(c3cc(/C=C(\F)c4ccc(C(F)(F)F)cn4)ccc3F)CO[C@H](C(F)(F)F)[C@H]2CS1` [Example 139, (4aS,5S,7aS)-7a-(2-fluoro-5-((Z)-2-fluoro-2-(5-(trifluoromethyl)pyridin-2-yl)vinyl)phenyl)-5-(trifluoromethyl)-4a,5,7,7a-tetrahydro-4H-furo[3,4-d][1,3]thiazin-2-amine]: greater than 400000 nM, 15.8 nM, 1500 nM and 0.117 µM.

(Values after patent US11548903B2, “Bicyclic thiazine and oxazine derivatives as beta-secretase inhibitors and methods of use” (AMGEN INC., priority 2016, dated 2023).)
